Columns and labels:
[1] = Metabolic stability in human liver microsomes assessed as intrinsic clearance at 0.5 uM incubated upto 40 mins by LCMS analysis; format: ADME, Microsome; conditions: read-out: CLH
[2] = Metabolic stability in mouse liver microsomes assessed as intrinsic clearance at 0.5 uM incubated upto 40 mins by LCMS analysis; format: ADME, Microsome; conditions: read-out: CLH
OVCAR-3 [3] = assay: Induction of mitotic arrest in human OVCAR-3 cells assessed as p-histone H3 incubated for 24 hrs by mitotic - imaging assay; format: functional, cell-based; conditions: OVCAR-3, 24 h
OVCAR-3 [4] = assay: Antiproliferative activity against human OVCAR-3 cells by nuclear count assay; format: functional, cell-based
[5] = target: T1, Kinesin-like protein KIF18A (Homo sapiens, UniProt Q8NI77); assay: Inhibition of recombinant His-tagged human KIF18A (1 to 467 residues) expressed in Trichoplusia ni insect cells assessed as inhibition of microtubule-stimulated ATPase activity preincubated for 30 mins followed by ATP addition and further incubated for 15 mins by ADP-Glo reagent based assay; design: species or system Insect cell
T1 sequence (Q8NI77 whole entry): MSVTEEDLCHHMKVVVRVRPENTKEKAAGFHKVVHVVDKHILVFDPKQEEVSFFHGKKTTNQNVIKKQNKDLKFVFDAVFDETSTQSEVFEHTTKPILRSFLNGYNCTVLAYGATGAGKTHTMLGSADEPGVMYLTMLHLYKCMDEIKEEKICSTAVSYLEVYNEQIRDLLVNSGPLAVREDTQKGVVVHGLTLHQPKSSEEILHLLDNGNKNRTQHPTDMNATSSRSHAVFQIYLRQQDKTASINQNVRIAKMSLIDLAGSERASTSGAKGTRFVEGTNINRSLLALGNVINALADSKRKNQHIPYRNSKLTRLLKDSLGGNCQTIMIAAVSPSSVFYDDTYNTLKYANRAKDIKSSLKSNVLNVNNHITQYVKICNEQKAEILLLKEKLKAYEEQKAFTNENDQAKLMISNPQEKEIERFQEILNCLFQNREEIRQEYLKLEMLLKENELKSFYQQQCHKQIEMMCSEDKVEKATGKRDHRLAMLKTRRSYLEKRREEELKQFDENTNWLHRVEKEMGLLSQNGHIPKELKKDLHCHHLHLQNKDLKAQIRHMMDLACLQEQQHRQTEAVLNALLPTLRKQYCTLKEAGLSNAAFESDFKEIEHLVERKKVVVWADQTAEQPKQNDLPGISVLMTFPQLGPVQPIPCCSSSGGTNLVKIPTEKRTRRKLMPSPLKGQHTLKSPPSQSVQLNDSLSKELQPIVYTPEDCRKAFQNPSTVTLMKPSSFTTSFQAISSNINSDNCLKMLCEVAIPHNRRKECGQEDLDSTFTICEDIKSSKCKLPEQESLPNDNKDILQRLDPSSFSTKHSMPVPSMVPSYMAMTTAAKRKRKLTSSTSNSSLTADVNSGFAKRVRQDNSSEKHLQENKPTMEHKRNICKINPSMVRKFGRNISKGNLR

MDA-MB-157 = assay: Induction of mitotic arrest in TP53 mutant human MDA-MB-157 cells assessed as multipolar spindle arrays by measuring pericentriolar material incubated for 24 hrs by mitotic index assay; format: functional, cell-based; conditions: MDA-MB-157, 24 h
[6] = target: T2, Kinesin-like protein KIF11 (Homo sapiens, UniProt P52732); assay: Inhibition of recombinant GST-tagged human Eg5 assessed as inhibition of microtubule-stimulated ATPase activity preincubated for 30 mins followed by ATP addition and further incubated for 15 mins by ADP-Glo reagent based assay
T2 sequence (P52732 whole entry): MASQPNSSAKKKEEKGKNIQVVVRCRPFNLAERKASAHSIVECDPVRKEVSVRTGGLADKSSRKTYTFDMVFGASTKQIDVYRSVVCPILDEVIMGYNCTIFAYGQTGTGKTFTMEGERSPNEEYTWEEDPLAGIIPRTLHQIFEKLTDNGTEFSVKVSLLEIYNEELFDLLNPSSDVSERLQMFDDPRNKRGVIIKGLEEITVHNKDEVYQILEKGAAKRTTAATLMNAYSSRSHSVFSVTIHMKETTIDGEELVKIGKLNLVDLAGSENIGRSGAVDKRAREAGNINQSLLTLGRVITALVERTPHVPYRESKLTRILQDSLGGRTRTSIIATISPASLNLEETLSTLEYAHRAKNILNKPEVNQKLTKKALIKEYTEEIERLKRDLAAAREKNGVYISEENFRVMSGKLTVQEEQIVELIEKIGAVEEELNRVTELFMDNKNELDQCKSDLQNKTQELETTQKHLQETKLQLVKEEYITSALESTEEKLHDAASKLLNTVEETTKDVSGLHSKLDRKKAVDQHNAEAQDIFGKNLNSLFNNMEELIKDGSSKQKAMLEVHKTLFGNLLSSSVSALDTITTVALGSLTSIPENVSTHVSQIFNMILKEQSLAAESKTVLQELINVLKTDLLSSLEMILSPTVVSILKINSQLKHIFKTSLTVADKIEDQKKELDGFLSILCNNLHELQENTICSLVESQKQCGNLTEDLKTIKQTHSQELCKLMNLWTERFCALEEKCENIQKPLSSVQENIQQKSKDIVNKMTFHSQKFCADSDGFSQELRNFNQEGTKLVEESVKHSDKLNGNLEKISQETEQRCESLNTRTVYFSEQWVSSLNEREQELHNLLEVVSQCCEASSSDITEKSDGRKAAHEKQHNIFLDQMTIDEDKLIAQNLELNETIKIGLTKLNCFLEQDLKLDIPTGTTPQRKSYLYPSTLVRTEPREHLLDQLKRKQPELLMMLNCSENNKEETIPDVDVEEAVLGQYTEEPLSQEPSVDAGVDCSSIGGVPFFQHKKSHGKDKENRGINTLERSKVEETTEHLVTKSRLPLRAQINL

[7] = target: Centromere-associated protein E (Homo sapiens, UniProt Q02224); assay: Inhibition of recombinant GST-tagged human CENP-E assessed as inhibition of microtubule-stimulated ATPase activity preincubated for 30 mins followed by ATP addition and further incubated for 15 mins by ADP-Glo reagent based assay
Sequence of Centromere-associated protein E (Q02224 whole entry): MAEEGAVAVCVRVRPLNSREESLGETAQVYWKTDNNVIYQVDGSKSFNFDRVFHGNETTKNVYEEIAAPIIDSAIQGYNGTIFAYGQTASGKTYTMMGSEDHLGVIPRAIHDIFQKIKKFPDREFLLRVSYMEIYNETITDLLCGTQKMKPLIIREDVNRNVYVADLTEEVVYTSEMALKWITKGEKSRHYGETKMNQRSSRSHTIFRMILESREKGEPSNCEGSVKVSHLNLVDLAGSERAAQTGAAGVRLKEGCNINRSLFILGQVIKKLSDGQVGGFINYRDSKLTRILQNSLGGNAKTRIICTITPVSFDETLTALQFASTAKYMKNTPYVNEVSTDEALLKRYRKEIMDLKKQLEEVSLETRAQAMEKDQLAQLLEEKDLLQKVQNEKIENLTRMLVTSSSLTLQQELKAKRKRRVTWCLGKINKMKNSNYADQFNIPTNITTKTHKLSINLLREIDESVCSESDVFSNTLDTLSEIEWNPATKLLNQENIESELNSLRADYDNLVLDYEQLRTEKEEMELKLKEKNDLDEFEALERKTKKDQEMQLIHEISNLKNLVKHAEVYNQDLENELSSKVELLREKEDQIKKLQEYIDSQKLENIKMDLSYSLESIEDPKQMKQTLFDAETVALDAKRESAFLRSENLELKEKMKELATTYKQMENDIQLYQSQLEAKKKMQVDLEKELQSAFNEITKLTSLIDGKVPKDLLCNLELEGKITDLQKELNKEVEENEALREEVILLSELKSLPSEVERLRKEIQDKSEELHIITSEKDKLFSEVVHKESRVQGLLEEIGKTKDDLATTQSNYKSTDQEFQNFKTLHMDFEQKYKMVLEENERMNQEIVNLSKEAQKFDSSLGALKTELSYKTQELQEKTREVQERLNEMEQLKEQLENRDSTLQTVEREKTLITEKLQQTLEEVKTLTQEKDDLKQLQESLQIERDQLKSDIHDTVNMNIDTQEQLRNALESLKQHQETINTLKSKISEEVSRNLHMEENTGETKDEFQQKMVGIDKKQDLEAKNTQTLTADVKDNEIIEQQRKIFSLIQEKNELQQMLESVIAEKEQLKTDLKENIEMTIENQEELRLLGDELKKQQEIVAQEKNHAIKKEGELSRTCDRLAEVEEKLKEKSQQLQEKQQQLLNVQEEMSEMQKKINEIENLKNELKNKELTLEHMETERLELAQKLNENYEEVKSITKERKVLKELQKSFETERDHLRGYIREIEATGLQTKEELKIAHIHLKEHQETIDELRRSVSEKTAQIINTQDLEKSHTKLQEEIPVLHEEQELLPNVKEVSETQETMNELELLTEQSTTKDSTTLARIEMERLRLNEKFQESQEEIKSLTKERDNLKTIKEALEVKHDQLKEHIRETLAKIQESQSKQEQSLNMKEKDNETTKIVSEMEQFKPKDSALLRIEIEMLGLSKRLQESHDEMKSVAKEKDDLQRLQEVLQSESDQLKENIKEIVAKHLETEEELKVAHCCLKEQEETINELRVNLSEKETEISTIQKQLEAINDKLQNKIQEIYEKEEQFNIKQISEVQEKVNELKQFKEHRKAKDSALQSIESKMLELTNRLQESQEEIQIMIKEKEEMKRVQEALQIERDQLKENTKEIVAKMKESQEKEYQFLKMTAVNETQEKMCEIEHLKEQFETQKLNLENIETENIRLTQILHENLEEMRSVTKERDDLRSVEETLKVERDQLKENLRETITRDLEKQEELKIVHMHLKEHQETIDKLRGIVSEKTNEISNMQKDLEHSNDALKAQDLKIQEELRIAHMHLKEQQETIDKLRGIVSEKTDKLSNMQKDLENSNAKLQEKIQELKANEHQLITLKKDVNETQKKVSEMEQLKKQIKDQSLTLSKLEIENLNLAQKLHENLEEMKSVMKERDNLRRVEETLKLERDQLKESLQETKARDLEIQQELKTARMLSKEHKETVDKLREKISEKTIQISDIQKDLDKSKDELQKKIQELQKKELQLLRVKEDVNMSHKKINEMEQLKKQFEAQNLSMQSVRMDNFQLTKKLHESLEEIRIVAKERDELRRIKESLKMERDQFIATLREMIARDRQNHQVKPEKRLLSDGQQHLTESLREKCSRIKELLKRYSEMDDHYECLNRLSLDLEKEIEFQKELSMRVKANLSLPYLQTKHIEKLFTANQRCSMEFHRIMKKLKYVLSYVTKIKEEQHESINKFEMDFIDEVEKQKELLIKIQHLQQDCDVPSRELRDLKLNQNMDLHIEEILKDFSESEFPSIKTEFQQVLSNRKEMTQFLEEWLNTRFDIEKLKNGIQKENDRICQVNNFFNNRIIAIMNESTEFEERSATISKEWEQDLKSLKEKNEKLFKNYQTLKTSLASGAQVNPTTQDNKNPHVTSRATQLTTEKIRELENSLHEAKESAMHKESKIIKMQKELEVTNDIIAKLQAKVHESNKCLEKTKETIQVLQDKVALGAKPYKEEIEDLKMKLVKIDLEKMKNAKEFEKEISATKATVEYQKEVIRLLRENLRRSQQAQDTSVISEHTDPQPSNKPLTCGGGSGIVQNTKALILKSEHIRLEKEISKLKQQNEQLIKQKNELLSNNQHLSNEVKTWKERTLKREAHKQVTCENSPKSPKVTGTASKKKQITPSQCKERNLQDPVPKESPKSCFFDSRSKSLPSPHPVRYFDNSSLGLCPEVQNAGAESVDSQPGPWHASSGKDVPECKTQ

[8] = Cmax in CD-1 mouse xenografted with human OVCAR-3 cells at 100 mg/kg, ip by LC-MS/MS analysis; format: ADME, organism-based; design: dose 100 mg/kg, route ip; conditions: in vivo
[9] = Plasma concentration in CD-1 mouse xenografted with human OVCAR-3 cells at 100 mg/kg, ip measured upto 24 hrs by LC-MS/MS analysis; format: ADME, organism-based
[10] = AUC (0 to 24 hrs) in CD-1 mouse xenografted with human OVCAR-3 cells at 100 mg/kg, ip by LC-MS/MS analysis; format: ADME, organism-based; design: dose 100 mg/kg, route ip; conditions: in vivo
[11] = Unbound fraction in CD-1 mouse plasma xenografted with human OVCAR-3 cells at 100 mg/kg, ip by LC-MS/MS analysis; format: ADME, organism-based
[12] = Volume of distribution at steady state in CD-1 mouse at 1 mg/kg, iv and 10 mg/kg, po; format: ADME, organism-based; conditions: in vivo
[13] = Unbound fraction in plasma (unknown origin) by ultracentrifugation; format: ADME, cell-free
[14] = Half life in CD-1 mouse at 1 mg/kg, iv and 10 mg/kg, po; format: ADME, organism-based; conditions: in vivo
[15] = Oral bioavailability in CD-1 mouse at 10 mg/kg; format: ADME, organism-based; conditions: in vivo
[16] = Clearance in CD-1 mouse at 1 mg/kg, iv and 10 mg/kg, po; format: ADME, organism-based; conditions: in vivo
[17] = Cmax in CD-1 mouse at 1 mg/kg, iv and 10 mg/kg, po; format: ADME, organism-based; design: dose 10 mg/kg, route po; conditions: in vivo

Row | Compound | microsomal CLint at 0.5 µM [1] [µL/min/mg] | microsomal CLint at 0.5 µM [2] [µL/min/mg] | EC50 (OVCAR-3 [3]) [nM] | EC50 (OVCAR-3 [4]) [nM] | IC50 [5] [nM] | other results
1 | CC(C)(C)NS(=O)(=O)c1cccc(NC(=O)c2ccc(NC(C)(C)CO)cc2N2CCC3(CC2)CC3)n1 | 189 | > 399 | 28 | 23 | 140 | –
2 | CC(C)(O)CNc1ccc(C(=O)Nc2cccc(S(=O)(=O)C3CCCC3)n2)c(N2CCC3(CC2)CC3)c1 | > 399 | > 399 | 228 | 229 | 165 | –
3 | CC1(C)CCN(c2ncccc2C(=O)Nc2cccc(S(=O)(=O)C3CCCC3)c2)CC1 | > 399 | > 399 | 2720 | 2140 | 1250 | –
4 | O=C(Nc1cccc(S(=O)(=O)N2CCCCC2)c1)c1cn[nH]c1-c1ccc(Cl)cc1 | 255 | > 399 | – | – | 520 | IC50 (MDA-MB-157): 8800 nM; IC50 [6]: > 100000 nM; IC50 [7]: > 100000 nM
5 | O=C(Nc1cccc(C2(C(F)(F)F)N=N2)c1)c1ccc(NS(=O)(=O)CCO)nc1N1CCC2(CC1)CC2 | – | – | – | – | 32 | –
6 | CC(C)(C)NS(=O)(=O)c1cccc(NC(=O)c2ccc(NS(=O)(=O)C3(C)CC3)cc2N2CCC3(CC2)CC3)c1 | 90 | 90 | 11 | 11 | – | Cmax [8]: 26.5 µM; concentration at 24 h [9]: 0.8 µM; AUC(0-t) [10]: 269 µM·h; fraction unbound [11]: 0.015
7 | CC(C)S(=O)(=O)c1cccc(NC(=O)c2cccnc2N2CCC3(CC2)CC3)c1 | 375 | > 399 | 4290 | 4480 | 3150 | –
8 | O=C(Nc1cccc(S(=O)(=O)C2COC2)c1)c1cccnc1N1CCC2(CC1)CC2 | 183 | 385 | 14800 | 12600 | 8880 | –
9 | O=C(Nc1cccc(S(=O)(=O)C2CCCC2)c1)c1cccnc1N1CCCCC1 | > 399 | > 399 | 6350 | 5030 | 6160 | IC50 (MDA-MB-157): 4800 nM; IC50 [6]: > 100000 nM; IC50 [7]: > 100000 nM
10 | O=C(Nc1cccc(S(=O)(=O)N2CCCC2)c1)c1cccnc1N1CCC2(CC1)CC2 | > 399 | > 399 | 5460 | 4420 | 1830 | –
11 | CC(C)(C)NS(=O)(=O)c1cccc(NC(=O)c2cccnc2N2CCC3(CC2)CC3)c1 | > 399 | > 399 | 1030 | 840 | 320 | –
12 | CC(C)(CO)Nc1ccc(C(=O)Nc2cccc(S(=O)(=O)NC3CCCC3)n2)c(N2CCC3(CC2)CC3)c1 | > 399 | > 399 | 48 | 32 | 80 | –
13 | CC(C)(C)NS(=O)(=O)c1cccc(NC(=O)c2ncc(NC(C)(C)CO)nc2N2CCC3(CC2)CC3)c1 | 74 | 76 | 190 | 110 | 135 | Vdss [12]: 0.7 L/kg; fraction unbound [13]: 0.019; half-life [14]: 3.6 h; bioavailability [15]: 13%; CL [16]: 5 mL/min/kg; Cmax [17]: 2.43 µM
14 | O=C(Nc1cccc(S(=O)(=O)C2CCCC2)n1)c1ccc(NCCO)cc1N1CCC2(CC1)CC2 | > 399 | > 399 | 177 | 117 | 92 | –
15 | CN(CCO)c1ccc(C(=O)Nc2cccc(S(=O)(=O)C3CCCC3)n2)c(N2CCC3(CC2)CC3)c1 | > 399 | > 399 | 449 | 358 | 253 | –
16 | O=[N+]([O-])c1cc(Cl)ccc1S(=O)(=O)c1ccccc1 | – | – | – | – | 1700 | –
17 | O=C(Nc1cccc(S(=O)(=O)C2CCCC2)c1)c1cccnc1N1CCC(F)(F)CC1 | > 399 | > 399 | 4630 | 4780 | 5310 | –
18 | CC(C)(C)NS(=O)(=O)c1cccc(NC(=O)c2ccc(NC(C)(C)CO)nc2N2CCC3(CC2)CC3)n1 | > 399 | > 399 | 43 | 42 | 81 | –
19 | O=C(Nc1cccc(S(=O)(=O)NC2CC2)c1)c1cccnc1N1CCC2(CC1)CC2 | > 399 | > 399 | 2260 | 1790 | 580 | –
20 | CC(C)(CO)S(=O)(=O)c1cccc(NC(=O)c2cccnc2N2CCC3(CC2)CC3)c1 | 154 | > 399 | 45800 | 31200 | 31600 | –
21 | COc1ccc(C(=O)Nc2cccc(S(=O)(=O)C3CCCC3)n2)c(N2CCC3(CC2)CC3)c1 | > 399 | > 399 | 2660 | 2350 | 360 | –
22 | CC(C)(C)NS(=O)(=O)c1cccc(NC(=O)c2ccc(NC3(CO)CC3)cc2N2CCC3(CC2)CC3)n1 | 83 | 58 | 75 | 62 | 166 | Vdss [12]: 0.3 L/kg; fraction unbound [13]: 0.011; half-life [14]: 1.5 h; bioavailability [15]: 22%; CL [16]: 5 mL/min/kg; Cmax [17]: 5.45 µM

Source: ChEMBL document CHEMBL5223091, “Targeting the Mitotic Kinesin KIF18A in Chromosomally Unstable Cancers: Hit Optimization Toward an In Vivo Chemical Probe” (J Med Chem, 2022)
